Test results: patent US20240138411A1, “METHOD OF […] OF SUGARCANE” (CORTEVA AGRISCIENCE LLC, priority 2021, published 2024)

Tested on: sugarcane
Test: Sugarcane flowering inhibition field trials, floral induction rated on UFSCar scale
Assay type: in vivo
Experimental: In order to explore the activity of florpyrauxifen as flowering inhibitor in sugarcane, field studies were carried out. Florpyrauxifen-benzyl was tested at rates from 2 to 20 grams active ingredient per hectare (g ai/ha) and compared to Ethrel® 720 (Bayer), the standard treatment. The flowering inhibition effect was assessed by checking the floral induction in sugarcane through the percentage scale recommended by UFSCar (Federal University of Sao Carlos, Sao Paulo, Brazil).
Four trials were carried out in sugarcane where florpyrauxifen-benzyl (Rinskor®), applied at a rate of 2 to 20 g ai/ha, was compared to ethephon (Ethrel® 720) applied at a rate of 475 g ai/ha. Control plots of untreated sugarcane were also evaluated. Rinskor® and Ethrel® 720 were diluted in water and a single application for each study (backpack sprayer) was performed delivering 50 L of spray solution per ha at the reproductive stage of sugarcane and at a maximum 150 days before harvest. The activity of florpyrauxifen-benzyl as a flowering inhibitor was measured via assessments (Scale of flowering inhibition—see chart 1) performed at 0, 14, 30, 45, 60, 75, 90, 120, 150 days after application, or up to harvest time. The assessments were measured in sugarcane stems, rating the flowering induction according to the UFSCar scale shown below. Significance of treatment effect was evaluated with F-approximate test (α=0.1) and least square means from different treatments were compared with Tukey's test.

## COc1c(Cl)ccc(-c2nc(C(=O)OCc3ccccc3)c(Cl)c(N)c2F)c1F [Rinskor, florpyrauxifen-benzyl]
Table 1, 75 DAA, 2 g ai/ha
  % Referring to Scale: 13.5%
  Frequency 1/1 (0%): 12.5%
  Frequency 2/1 (15%): 85.0%
  Frequency 3/1 (30%): 2.5%
  Frequency 4/1 (50%): 0.0%
  Frequency 4/2 (80%): 0.0%
  Frequency 4/3 (90%): 0.0%
  Frequency 4/4 (100%): 0.0%
Table 1, 75 DAA, 5 g ai/ha
  % Referring to Scale: 14.6%
  Frequency 1/1 (0%): 7.5%
  Frequency 2/1 (15%): 87.5%
  Frequency 3/1 (30%): 5.0%
  Frequency 4/1 (50%): 0.0%
  Frequency 4/2 (80%): 0.0%
  Frequency 4/3 (90%): 0.0%
  Frequency 4/4 (100%): 0.0%
Table 1, 75 DAA, 10 g ai/ha
  % Referring to Scale: 11.3%
  Frequency 1/1 (0%): 25.0%
  Frequency 2/1 (15%): 75.0%
  Frequency 3/1 (30%): 0.0%
  Frequency 4/1 (50%): 0.0%
  Frequency 4/2 (80%): 0.0%
  Frequency 4/3 (90%): 0.0%
  Frequency 4/4 (100%): 0.0%
Table 1, 75 DAA, 15 g ai/ha
  % Referring to Scale: 10.1%
  Frequency 1/1 (0%): 32.5%
  Frequency 2/1 (15%): 67.5%
  Frequency 3/1 (30%): 0.0%
  Frequency 4/1 (50%): 0.0%
  Frequency 4/2 (80%): 0.0%
  Frequency 4/3 (90%): 0.0%
  Frequency 4/4 (100%): 0.0%
Table 1, 75 DAA, 20 g ai/ha
  % Referring to Scale: 10.5%
  Frequency 1/1 (0%): 30.0%
  Frequency 2/1 (15%): 70.0%
  Frequency 3/1 (30%): 0.0%
  Frequency 4/1 (50%): 0.0%
  Frequency 4/2 (80%): 0.0%
  Frequency 4/3 (90%): 0.0%
  Frequency 4/4 (100%): 0.0%
Table 1, 90 DAA, 2 g ai/ha
  % Referring to Scale: 13.1%
  Frequency 1/1 (0%): 12.5%
  Frequency 2/1 (15%): 87.5%
  Frequency 3/1 (30%): 0.0%
  Frequency 4/1 (50%): 0.0%
  Frequency 4/2 (80%): 0.0%
  Frequency 4/3 (90%): 0.0%
  Frequency 4/4 (100%): 0.0%
Table 1, 90 DAA, 5 g ai/ha
  % Referring to Scale: 11.3%
  Frequency 1/1 (0%): 25.0%
  Frequency 2/1 (15%): 75.0%
  Frequency 3/1 (30%): 0.0%
  Frequency 4/1 (50%): 0.0%
  Frequency 4/2 (80%): 0.0%
  Frequency 4/3 (90%): 0.0%
  Frequency 4/4 (100%): 0.0%
Table 1, 90 DAA, 10 g ai/ha
  % Referring to Scale: 14.3%
  Frequency 1/1 (0%): 7.5%
  Frequency 2/1 (15%): 90.0%
  Frequency 3/1 (30%): 2.5%
  Frequency 4/1 (50%): 0.0%
  Frequency 4/2 (80%): 0.0%
  Frequency 4/3 (90%): 0.0%
  Frequency 4/4 (100%): 0.0%
Table 1, 90 DAA, 15 g ai/ha
  % Referring to Scale: 13.9%
  Frequency 1/1 (0%): 7.5%
  Frequency 2/1 (15%): 92.5%
  Frequency 3/1 (30%): 0.0%
  Frequency 4/1 (50%): 0.0%
  Frequency 4/2 (80%): 0.0%
  Frequency 4/3 (90%): 0.0%
  Frequency 4/4 (100%): 0.0%
Table 1, 90 DAA, 20 g ai/ha
  % Referring to Scale: 13.5%
  Frequency 1/1 (0%): 15.0%
  Frequency 2/1 (15%): 80.0%
  Frequency 3/1 (30%): 5.0%
  Frequency 4/1 (50%): 0.0%
  Frequency 4/2 (80%): 0.0%
  Frequency 4/3 (90%): 0.0%
  Frequency 4/4 (100%): 0.0%
Table 1, 120 DAA, 2 g ai/ha
  % Referring to Scale: 13.9%
  Frequency 1/1 (0%): 7.5%
  Frequency 2/1 (15%): 92.5%
  Frequency 3/1 (30%): 0.0%
  Frequency 4/1 (50%): 0.0%
  Frequency 4/2 (80%): 0.0%
  Frequency 4/3 (90%): 0.0%
  Frequency 4/4 (100%): 0.0%
Table 1, 120 DAA, 5 g ai/ha
  % Referring to Scale: 12.8%
  Frequency 1/1 (0%): 15.0%
  Frequency 2/1 (15%): 85.0%
  Frequency 3/1 (30%): 0.0%
  Frequency 4/1 (50%): 0.0%
  Frequency 4/2 (80%): 0.0%
  Frequency 4/3 (90%): 0.0%
  Frequency 4/4 (100%): 0.0%
Table 1, 120 DAA, 10 g ai/ha
  % Referring to Scale: 13.9%
  Frequency 1/1 (0%): 7.5%
  Frequency 2/1 (15%): 92.5%
  Frequency 3/1 (30%): 0.0%
  Frequency 4/1 (50%): 0.0%
  Frequency 4/2 (80%): 0.0%
  Frequency 4/3 (90%): 0.0%
  Frequency 4/4 (100%): 0.0%
Table 1, 120 DAA, 15 g ai/ha
  % Referring to Scale: 13.9%
  Frequency 1/1 (0%): 7.5%
  Frequency 2/1 (15%): 92.5%
  Frequency 3/1 (30%): 0.0%
  Frequency 4/1 (50%): 0.0%
  Frequency 4/2 (80%): 0.0%
  Frequency 4/3 (90%): 0.0%
  Frequency 4/4 (100%): 0.0%
